Test results from US20240025906A1 (NEURON23, INC., priority 2022, published 2024).
pIC50, pKd: −log10 of the molar value.

Columns and labels:
TYK2 JH2 = biological target: T1, TYK2 JH2 (Homo sapiens, UniProt P29597); assay: TYK2 JH2 binding assay (KINOMEscan KdELECT competitive binding); details: TYK2 JH2 domain, DiscoverX KINOMEscan KdELECT (Assay A); read-out: Biochemical TYK2_DiscoverX_JH2_BND_Kd
T1 construct: purchased DiscoverX (KINOMEscan KdELECT service); host or cells: E. coli BL21-derived (T7 phage display) or HEK-293
T1 sequence (P29597 589-875 limits assumed): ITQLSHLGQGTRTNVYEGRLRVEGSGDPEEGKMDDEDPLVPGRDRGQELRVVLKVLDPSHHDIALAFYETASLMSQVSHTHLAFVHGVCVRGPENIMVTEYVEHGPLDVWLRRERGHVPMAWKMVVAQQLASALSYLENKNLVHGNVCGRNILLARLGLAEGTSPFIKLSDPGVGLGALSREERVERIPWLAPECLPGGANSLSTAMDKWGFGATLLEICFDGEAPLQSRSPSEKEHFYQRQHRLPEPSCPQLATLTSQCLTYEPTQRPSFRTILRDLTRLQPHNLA
Method in brief: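 Beads carrying a biotinylated ligand were mixed with tagged JH2 kinase and compound (11 points, 3-fold steps, 0.9% DMSO) and shaken 1 h at room temperature. After washing, kinase was released with 0.5 μM untagged ligand over 30 min and measured by qPCR to derive Kd.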

[1] = tested on: JAK1/TYK2 pSTAT5 (Tyr694/699) in THP-1 cell line; assay: IFNa-stimulated JAK1/TYK2 pSTAT5 (Tyr694/699) inhibition cellular assay, AlphaLISA; type: cell-based; details: Homo sapiens; THP-1 cells, IFNa-stimulated, AlphaLISA (Assay B); read-out: Cellular_THP1_IFNa-pSTATS_TYK2
Method in brief: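 pSTAT5 (Tyr694/699) in lysates quantified by AlphaLISA (615 nm) after 30 min IFNa stimulation (100 ng/mL stock) of THP-1 cells. The cells, 2e4 per well in HBSS, had first been exposed 1 h at 37° C. to eight 6-fold compound dilutions, 10000 down to 0.04 nM final. IC50 fitted by 4PL regression, bottom 0, Hill slope −1.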

SMILES | pKd (TYK2 JH2) | pIC50 [1]
CNc1ncc(-c2nc3cc(OC4CN(C)C4)ccc3o2)c2cc(NC(=O)C3CC3)ncc12 [Example 198, N-(8-(methylamino)-5-(5-((1-methylazetidin-3-yl)oxy)benzo[d]oxazol-2-yl)-2,7-naphthyridin-3-yl)cyclopropanecarboxamide] | ≥ 7.00 | ≥ 6.30
CNc1ncc(-c2nc3cc(O[C@H]4C[C@H](OC)C4)ccc3o2)c2cc(NC(=O)C3CC3)ncc12 [Example 199, N-(5-(5-((1r,3r)-3-methoxycyclobutoxy)benzo[d]oxazol-2-yl)-8-(methylamino)-2,7-naphthyridin-3-yl)cyclopropanecarboxamide] | ≥ 7.00 | ≥ 6.30
CNc1ncc(-c2nc3cc(O[C@H]4C[C@@H](OC)C4)ccc3o2)c2cc(NC(=O)C3CC3)ncc12 [Example 200, N-(5-(5-((1s,3s)-3-methoxycyclobutoxy)benzo[d]oxazol-2-yl)-8-(methylamino)-2,7-naphthyridin-3-yl)cyclopropanecarboxamide] | ≥ 7.00 | ≥ 6.30
CNc1ncc(-c2nc3c(COC)cccc3o2)c2cc(NC(=O)C3CC3)ncc12 [Example 201, N-(5-(4-(methoxymethyl)benzo[d]oxazol-2-yl)-8-(methylamino)-2,7-naphthyridin-3-yl)cyclopropanecarboxamide] | ≥ 7.00 | ≥ 6.30
CNc1ncc(-c2nc3cc(OC)c(OC)cc3o2)c2cc(NC(=O)C3CC3)ncc12 [Example 202, N-(5-(5,6-dimethoxybenzo[d]oxazol-2-yl)-8-(methylamino)-2,7-naphthyridin-3-yl)cyclopropanecarboxamide] | ≥ 7.00 | ≥ 6.30
CNc1ncc(-c2nc3ccc(OC)cc3o2)c2cc(NC(=O)C3CC3)ncc12 [Example 203, N-(5-(6-methoxybenzo[d]oxazol-2-yl)-8-(methylamino)-2,7-naphthyridin-3-yl)cyclopropanecarboxamide] | ≥ 7.00 | ≥ 6.30
CNc1ncc(-c2nc3c(Cl)cccc3o2)c2cc(NC(=O)C3CC3)ncc12 [Example 204, N-(5-(4-chlorobenzo[d]oxazol-2-yl)-8-(methylamino)-2,7-naphthyridin-3-yl)cyclopropanecarboxamide] | ≥ 7.00 | ≥ 6.30
CNc1ncc(-c2nc3cccc(C)c3o2)c2cc(NC(=O)C3CC3)ncc12 [Example 205, N-(8-(methylamino)-5-(7-methylbenzo[d]oxazol-2-yl)-2,7-naphthyridin-3-yl)cyclopropanecarboxamide] | ≥ 7.00 | ≥ 6.30
CNc1ncc(-c2nc3ccc(C)cc3o2)c2cc(NC(=O)C3CC3)ncc12 [Example 206, N-(8-(methylamino)-5-(6-methylbenzo[d]oxazol-2-yl)-2,7-naphthyridin-3-yl)cyclopropanecarboxamide] | ≥ 7.00 | ≥ 6.30
CNc1ncc(-c2nc3cc(C)ccc3o2)c2cc(NC(=O)C3CC3)ncc12 [Example 207, N-(8-(methylamino)-5-(5-methylbenzo[d]oxazol-2-yl)-2,7-naphthyridin-3-yl)cyclopropanecarboxamide] | ≥ 7.00 | ≥ 6.30
CNc1ncc(-c2nc3cccc(OC)c3o2)c2cc(NC(=O)C3CC3)ncc12 [Example 208, N-(5-(7-methoxybenzo[d]oxazol-2-yl)-8-(methylamino)-2,7-naphthyridin-3-yl)cyclopropanecarboxamide] | ≥ 7.00 | ≥ 6.30
CNc1ncc(-c2nc3cc(Br)ccc3o2)c2cc(NC(=O)C3CC3)ncc12 [Example 209, N-(5-(5-bromobenzo[d]oxazol-2-yl)-8-(methylamino)-2,7-naphthyridin-3-yl)cyclopropanecarboxamide] | ≥ 7.00 | ≥ 6.30
CNc1ncc(-c2nc3cc(C#N)ccc3o2)c2cc(NC(=O)C3CC3)ncc12 [Example 210, N-(5-(5-cyanobenzo[d]oxazol-2-yl)-8-(methylamino)-2,7-naphthyridin-3-yl)cyclopropanecarboxamide] | ≥ 7.00 | ≥ 6.30
CNc1ncc(-c2nc3cccc(Cl)c3o2)c2cc(NC(=O)C3CC3)ncc12 [Example 211, N-(5-(7-chlorobenzo[d]oxazol-2-yl)-8-(methylamino)-2,7-naphthyridin-3-yl)cyclopropanecarboxamide] | ≥ 7.00 | ≥ 6.30
CNc1ncc(-c2nc3cc(Cl)ccc3o2)c2cc(NC(=O)C3CC3)ncc12 [Example 212, N-(5-(5-chlorobenzo[d]oxazol-2-yl)-8-(methylamino)-2,7-naphthyridin-3-yl)cyclopropanecarboxamide] | ≥ 7.00 | ≥ 6.30
CNc1ncc(-c2nc3ccc(C#N)cc3o2)c2cc(NC(=O)C3CC3)ncc12 [Example 213, N-(5-(6-cyanobenzo[d]oxazol-2-yl)-8-(methylamino)-2,7-naphthyridin-3-yl)cyclopropanecarboxamide] | ≥ 7.00 | ≥ 6.30
CNc1ncc(-c2nc3cc(C(=O)O)ccc3o2)c2cc(NC(=O)C3CC3)ncc12 [Example 214, 2-(6-(cyclopropanecarboxamido)-1-(methylamino)-2,7-naphthyridin-4-yl)benzo[d]oxazole-5-carboxylic acid] | ≥ 7.00 | < 6.30
CNc1ncc(-c2nc3c(O)cccc3o2)c2cc(NC(=O)C3CC3)ncc12 [Example 215, N-(5-(4-hydroxybenzo[d]oxazol-2-yl)-8-(methylamino)-2,7-naphthyridin-3-yl)cyclopropanecarboxamide] | ≥ 7.00 | ≥ 6.30
CNc1ncc(-c2nc3cc(C(C)=O)ccc3o2)c2cc(NC(=O)C3CC3)ncc12 [Example 216, N-(5-(5-acetylbenzo[d]oxazol-2-yl)-8-(methylamino)-2,7-naphthyridin-3-yl)cyclopropanecarboxamide] | ≥ 7.00 | ≥ 6.30
CNc1ncc(-c2nc3cc(C(F)(F)F)ccc3o2)c2cc(NC(=O)C3CC3)ncc12 [Example 217, N-(8-(methylamino)-5-(5-(trifluoromethyl)benzo[d]oxazol-2-yl)-2,7-naphthyridin-3-yl)cyclopropanecarboxamide] | ≥ 7.00 | ≥ 6.30
CNc1ncc(-c2nc3cc(OC(F)(F)F)ccc3o2)c2cc(NC(=O)C3CC3)ncc12 [Example 218, N-(8-(methylamino)-5-(5-(trifluoromethoxy)benzo[d]oxazol-2-yl)-2,7-naphthyridin-3-yl)cyclopropanecarboxamide] | ≥ 7.00 | ≥ 6.30
CNc1ncc(-c2nc3ccc(Cl)cc3o2)c2cc(NC(=O)C3CC3)ncc12 [Example 219, N-(5-(6-chlorobenzo[d]oxazol-2-yl)-8-(methylamino)-2,7-naphthyridin-3-yl)cyclopropanecarboxamide] | ≥ 7.00 | ≥ 6.30
CNc1ncc(-c2nc3c(N4CCC4COC)cccc3o2)c2cc(NC(=O)C3CC3)ncc12 (stereo not drawn) [Example 220, N-(5-(4-(2-(methoxymethyl)azetidin-1-yl)benzo[d]oxazol-2-yl)-8-(methylamino)-2,7-naphthyridin-3-yl)cyclopropanecarboxamide] | ≥ 7.00 | < 6.30
CNc1ncc(-c2nc3c(N4CC(OC)C4)cccc3o2)c2cc(NC(=O)C3CC3)ncc12 [Example 221, N-(5-(4-(3-methoxyazetidin-1-yl)benzo[d]oxazol-2-yl)-8-(methylamino)-2,7-naphthyridin-3-yl)cyclopropanecarboxamide] | ≥ 7.00 | ≥ 6.30
CNc1ncc(-c2nc3c(OC4CC4)cccc3o2)c2cc(NC(=O)C3CC3)ncc12 [Example 222, N-(5-(4-cyclopropoxybenzo[d]oxazol-2-yl)-8-(methylamino)-2,7-naphthyridin-3-yl)cyclopropanecarboxamide] | ≥ 7.00 | ≥ 6.30
CNc1ncc(-c2nc3cc(OC4CC4)ccc3o2)c2cc(NC(=O)C3CC3)ncc12 [Example 223, N-(5-(5-cyclopropoxybenzo[d]oxazol-2-yl)-8-(methylamino)-2,7-naphthyridin-3-yl)cyclopropanecarboxamide] | ≥ 7.00 | ≥ 6.30
CNc1ncc(-c2nc3c(OC)c(OC)ccc3o2)c2cc(NC(=O)C3CC3)ncc12 [Example 224, N-(5-(4,5-dimethoxybenzo[d]oxazol-2-yl)-8-(methylamino)-2,7-naphthyridin-3-yl)cyclopropanecarboxamide] | ≥ 7.00 | ≥ 6.30
CNc1ncc(-c2nc3cc(OC(F)F)ccc3o2)c2cc(NC(=O)C3CC3)ncc12 [Example 225, N-(5-(5-(difluoromethoxy)benzo[d]oxazol-2-yl)-8-(methylamino)-2,7-naphthyridin-3-yl)cyclopropanecarboxamide] | ≥ 7.00 | ≥ 6.30
CNc1ncc(-c2nc3cc(OCC4CC4)ccc3o2)c2cc(NC(=O)C3CC3)ncc12 [Example 226, N-(5-(5-(cyclopropylmethoxy)benzo[d]oxazol-2-yl)-8-(methylamino)-2,7-naphthyridin-3-yl)cyclopropanecarboxamide] | ≥ 7.00 | ≥ 6.30
CNc1ncc(-c2nc3cc(OCCC#N)ccc3o2)c2cc(NC(=O)C3CC3)ncc12 [Example 227, N-(5-(5-(2-cyanoethoxy)benzo[d]oxazol-2-yl)-8-(methylamino)-2,7-naphthyridin-3-yl)cyclopropanecarboxamide] | ≥ 7.00 | ≥ 6.30
